{
  "source": "BindingDB's records for patent US20240383913",
  "about": "(Chinese Academy of Sciences, 2024)",
  "key": {"[1]": {"biological_target": "D(2) dopamine receptor (Homo sapiens, UniProt P14416)", "sequence (P14416 whole entry)": "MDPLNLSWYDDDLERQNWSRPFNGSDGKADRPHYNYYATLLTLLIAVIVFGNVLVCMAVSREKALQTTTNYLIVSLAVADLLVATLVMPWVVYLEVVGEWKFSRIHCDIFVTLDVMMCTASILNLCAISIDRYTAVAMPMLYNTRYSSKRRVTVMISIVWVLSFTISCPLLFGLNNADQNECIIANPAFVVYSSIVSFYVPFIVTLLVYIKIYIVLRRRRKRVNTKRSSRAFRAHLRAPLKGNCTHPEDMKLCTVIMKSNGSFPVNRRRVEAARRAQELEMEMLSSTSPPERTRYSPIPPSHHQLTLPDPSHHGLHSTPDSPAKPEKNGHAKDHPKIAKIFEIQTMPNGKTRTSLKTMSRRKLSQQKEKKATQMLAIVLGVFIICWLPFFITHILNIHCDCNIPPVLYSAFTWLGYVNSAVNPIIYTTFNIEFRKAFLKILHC", "experiment": "Affinity of Compounds for Dopamine D2 Receptors", "method": "The affinity of the compounds of the present disclosure for the dopamine D2 receptors was determined by the method of radioligand competition experiment. In the first step, a cell membrane component containing specific dopamine D2 receptors was prepared. A 10 cm culture dish was used for transfection with 10 ng of the dopamine D2 receptors and 40 μL of polyethylenimine (PEI hereafter). After 48 hours, the 10 cm culture dish was taken out from the cell culture incubator and the cultured cells had expressed the dopamine D2 receptors. A vacuum pump was used to suck off the culture medium, 3 mL of lysis buffer was added to each culture dish, and the cells were placed in a 4° C. cold room for 10 minutes. After the cells were detached, the cells were transferred to a 15 mL centrifuge tube and centrifuged at 1500 rpm for 5 minutes at 4° C., and the supernatant was discarded. The cell pellet was transferred to a tissue homogenizer, and 3 mL of lysis buffer was added and fully ground until the cells were broken. Then, cell suspension was equally aliquoted into several EP tubes, centrifuged at 12000 rpm for 5 minutes at 4° C., and the supernatant was discarded. The precipitate was the cell membrane component containing the dopamine D2 receptors. […]"}, "[2]": {"biological_target": "5-hydroxytryptamine receptor 2A (Homo sapiens, UniProt P28223)", "sequence (P28223 whole entry)": "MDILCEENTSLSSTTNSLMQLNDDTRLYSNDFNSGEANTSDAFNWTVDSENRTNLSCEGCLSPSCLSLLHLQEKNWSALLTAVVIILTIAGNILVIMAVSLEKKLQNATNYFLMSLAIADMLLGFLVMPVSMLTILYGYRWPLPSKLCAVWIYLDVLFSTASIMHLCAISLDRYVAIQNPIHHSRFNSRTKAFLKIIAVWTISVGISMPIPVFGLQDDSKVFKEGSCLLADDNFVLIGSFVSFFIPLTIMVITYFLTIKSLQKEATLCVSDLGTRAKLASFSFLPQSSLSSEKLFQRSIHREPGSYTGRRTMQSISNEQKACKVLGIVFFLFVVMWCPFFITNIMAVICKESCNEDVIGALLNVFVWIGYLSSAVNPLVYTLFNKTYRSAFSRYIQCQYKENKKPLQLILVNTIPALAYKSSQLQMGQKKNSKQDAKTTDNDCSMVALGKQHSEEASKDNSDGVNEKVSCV", "experiment": "Affinity of Compounds for 5-HT2A Receptors", "method": "The affinity of the compounds of the present disclosure for the 5-HT2A receptors was determined by the method of radioligand competition experiment. In the first step, a cell membrane component containing specific 5-HT2A receptor was prepared. A 10 cm dish was used for transfection with 10 ng of the 5-HT2A receptor and 40 μL of PEI. After 48 hours, the 10 cm dish was taken out from the cell incubator and the cultured cells had expressed the 5-HT2A receptor. A vacuum pump was used to suck off the culture medium, 3 mL of lysis buffer was added to each culture dish, and the cells were placed in a 4° C. cold room for 10 minutes. After the cells were detached, the cells were transferred to a 15 mL centrifuge tube and centrifuged at 1500 rpm for 5 minutes at 4° C., and the supernatant was discarded. The cell pellet was transferred to a tissue homogenizer, and 3 mL of lysis buffer was added and fully ground until the cells were broken. Then, cell suspension was equally aliquoted into several EP tubes, centrifuged at 12000 rpm for 5 minutes at 4° C., and the supernatant was discarded. The precipitate was the cell membrane component containing the 5-HT2A receptor. […] First, a standard binding buffer was added to the cell membrane component containing the 5-HT2A receptor, and the cell membrane was disrupted and resuspended with an electric tissue homogenizer. […]"}},
  "data": [
    {"smiles": "c1ccc(-c2cccc(CN3CCN4c5cccc6scc(c56)CC4C3)c2)cc1", "note": "(configuration not stated) [US20240383913, Compound I-7]", "values": [
      {"measurement": "Ki", "setting": "[1]", "result": 310, "unit": "nM"},
      {"measurement": "Ki", "setting": "[2]", "result": 910, "unit": "nM"}
    ]}
  ]
}
